ChEMBL document CHEMBL4725475, “Discovery of Potent and Selective 7-Azaindole Isoindolinone-Based PI3Kγ Inhibitors” (ACS Med Chem Lett, 2020)

Tests used:
[1] = biological target: T1, Phosphatidylinositol 4,5-bisphosphate 3-kinase catalytic subunit gamma isoform (Homo sapiens, UniProt P48736); assay: Inhibition of PI3K p120gamma (unknown origin) using phosphatidylinositol 4,5-bisphosphate as substrate in presence of ATP incubated for 60 mins by ADP-Glo assay
Homo sapiens [2] = organism: Homo sapiens; assay: Selectivity index, ratio of inhibition for PI3Kdelta (unknown origin) to inhibition for PI3K p120 gamma (unknown origin) using phosphatidylinositol 4,5-bisphosphate as substrate in presence of ATP incubated for 60 mins by ADP-Glo assay
[3] = biological target: T1, Phosphatidylinositol 4,5-bisphosphate 3-kinase catalytic subunit gamma isoform; assay: Inhibition of PI3Kgamma in human THP-1 cells assessed as reduction in Akt phosphorylation at S473 residue incubated for 60 mins measured after 120 mins by alphalisa assay; format: cell-based
Homo sapiens [4] = organism: Homo sapiens; assay: Selectivity index, ratio of inhibition for PI3Kalpha (unknown origin) to inhibition for PI3K p120 gamma (unknown origin) using phosphatidylinositol 4,5-bisphosphate as substrate in presence of ATP incubated for 60 mins by ADP-Glo assay

T1 sequence (P48736 whole entry, canonical isoform): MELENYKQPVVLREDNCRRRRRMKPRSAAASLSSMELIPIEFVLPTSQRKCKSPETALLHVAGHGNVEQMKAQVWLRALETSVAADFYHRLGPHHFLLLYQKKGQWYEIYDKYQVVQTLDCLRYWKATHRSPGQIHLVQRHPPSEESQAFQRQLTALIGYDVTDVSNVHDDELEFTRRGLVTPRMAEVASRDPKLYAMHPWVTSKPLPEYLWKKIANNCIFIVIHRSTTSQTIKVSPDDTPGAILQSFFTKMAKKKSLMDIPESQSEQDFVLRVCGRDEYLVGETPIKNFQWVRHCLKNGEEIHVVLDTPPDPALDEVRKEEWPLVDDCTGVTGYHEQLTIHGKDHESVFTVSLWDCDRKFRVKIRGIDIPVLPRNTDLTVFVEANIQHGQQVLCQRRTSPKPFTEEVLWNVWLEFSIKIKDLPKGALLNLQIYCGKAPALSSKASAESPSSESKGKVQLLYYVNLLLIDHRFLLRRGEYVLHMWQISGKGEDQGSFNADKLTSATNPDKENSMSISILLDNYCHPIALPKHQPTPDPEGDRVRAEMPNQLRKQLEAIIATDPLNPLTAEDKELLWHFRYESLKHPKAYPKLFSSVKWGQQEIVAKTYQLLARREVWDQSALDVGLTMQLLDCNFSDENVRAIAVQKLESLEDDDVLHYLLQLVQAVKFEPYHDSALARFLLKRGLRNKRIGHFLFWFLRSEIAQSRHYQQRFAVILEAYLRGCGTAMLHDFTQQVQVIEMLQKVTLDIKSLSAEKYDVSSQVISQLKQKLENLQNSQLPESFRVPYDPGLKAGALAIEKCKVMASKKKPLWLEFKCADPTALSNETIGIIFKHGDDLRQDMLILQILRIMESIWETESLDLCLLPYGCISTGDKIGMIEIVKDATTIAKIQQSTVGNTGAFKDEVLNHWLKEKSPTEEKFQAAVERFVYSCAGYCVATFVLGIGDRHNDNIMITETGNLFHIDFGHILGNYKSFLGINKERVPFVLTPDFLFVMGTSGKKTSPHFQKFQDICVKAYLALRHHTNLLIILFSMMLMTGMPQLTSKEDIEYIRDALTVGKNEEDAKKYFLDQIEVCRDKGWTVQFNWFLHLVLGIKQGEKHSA

Compound | IC50 [1] [nM] | Selectivity ratio (Homo sapiens [2]) | IC50 [3] [nM] | Selectivity ratio (Homo sapiens [4])
Cc1cc(-c2cnc3[nH]ncc3c2)cc2c1C(=O)N([C@@H](C)C1CC1)C2 | 35 | – | – | –
Cc1cc(-c2cnc3[nH]cc(-c4ccncc4)c3c2)cc2c1C(=O)N([C@H](C)C1CC1)C2 | 9 | – | – | –
Cc1cc(-c2cnc3[nH]cc(-c4ccc(S(N)(=O)=O)cc4)c3c2)cc2c1C(=O)N([C@@H](C)C1CC1)C2 | 5 | 463 | 400 | 1060
CNS(=O)(=O)c1cc(-c2cnc3[nH]cc(-c4cnn(C)c4)c3c2)cc2c1C(=O)N([C@@H](C)C1CC1)C2 | 4 | 101 | 70 | > 4160
Cc1cc(-c2cnc3cn[nH]c3c2)cc2c1C(=O)N(C(C)C1CC1)C2 (racemic) | 490 | – | – | –
Cc1cc(-c2cnc3[nH]cc(-c4ccc(C#N)cc4)c3c2)cc2c1C(=O)N([C@@H](C)C1CC1)C2 | 42 | > 242 | 3500 | > 242
CC[C@@H](C1CC1)N1Cc2cc(-c3cnc4[nH]cc(-c5ccncc5)c4c3)cc(C)c2C1=O | 6 | > 414 | 800 | 255
Cc1cc(-c2cnc3[nH]cc(-c4ccncc4)c3c2)cc2c1C(=O)N(CC(F)(F)F)C2 | 25.3 | 62 | 1600 | 42
Cc1cc(-c2cnc3[nH]cc(-c4ccncc4)c3c2)cc2c1C(=O)N(C(C)(C)C)C2 | 26 | 107 | 720 | 62
Cc1cc(-c2cnc3[nH]cc(-c4ccc(C(C)(C)O)nc4)c3c2)cc2c1C(=O)N([C@@H](C)C1CC1)C2 | 3.3 | 183 | 600 | 416
Cc1cc(-c2cnc3[nH]cc(-c4cc(C)c(C(=O)O)c(C5CC5)c4)c3c2)cc2c1C(=O)N([C@@H](C)C1CC1)C2 | 1.2 | 367 | 70 | 691
Cc1cc(-c2cnc3[nH]ccc3c2)cc2c1C(=O)N([C@@H](C)C1CC1)C2 | 50 | – | – | –
Cc1cc(-c2cnc3c(c2)CC(=O)N3)cc2c1C(=O)N(C(C)C1CC1)C2 (racemic) | 600 | – | – | –
Cc1cc(-c2cnc3[nH]cc(-c4ccncc4)c3c2)cc2c1C(=O)N(C(C1CC1)C1CC1)C2 | 6.8 | 901 | 800 | 253
COC[C@H](C)N1Cc2cc(-c3cnc4[nH]cc(-c5ccncc5)c4c3)cc(C)c2C1=O | 9 | 216 | 600 | 51
Cc1cc(-c2cnc3[nH]cc(-c4ccc(C(N)=O)cc4)c3c2)cc2c1C(=O)N([C@@H](C)C1CC1)C2 | 2.59 | 226 | 230 | 711
Cc1cc(-c2cnc3[nH]c(=O)ccc3c2)cc2c1C(=O)N(C(C)C1CC1)C2 (racemic) | 530 | – | – | –
C[C@@H](C1CC1)N1Cc2cc(-c3cnc4[nH]cc(-c5cnn(C)c5)c4c3)cc(Cl)c2C1=O | 2.4 | 533 | 170 | 455
CC(C)c1cc(-c2cnc3[nH]cc(-c4cnn(C)c4)c3c2)cc2c1C(=O)N([C@@H](C)C1CC1)C2 | 4.2 | 1380 | 300 | 898
Cc1cc(-c2cnc3[nH]cc(-c4ccc(C(=O)O)c(C(F)(F)F)c4)c3c2)cc2c1C(=O)N([C@@H](C)C1CC1)C2 | 1.64 | 591 | 350 | 380
Cc1cc(-c2cnc3[nH]cc(-c4ccn(C)c(=O)c4)c3c2)cc2c1C(=O)N([C@@H](C)C1CC1)C2 | 26 | 128 | 200 | 466
Cc1cc(-c2cnc3[nH]nc(-c4ccncc4)c3c2)cc2c1C(=O)N([C@@H](C)C1CC1)C2 | 8 | – | – | –
Cc1cc(-c2cnc3[nH]ncc3c2)cc2c1C(=O)N(C(C)C1CC1)C2 (racemic) | 90 | – | – | –
C[C@@H](C1CC1)N1Cc2cc(-c3cnc4[nH]cc(-c5cnn(C)c5)c4c3)cc(C(F)(F)F)c2C1=O | 2.4 | 266 | 90 | 2800
Cc1cc(-c2cnc3[nH]cc(-c4ccnc(N)c4)c3c2)cc2c1C(=O)N([C@@H](C)C1CC1)C2 | 5.8 | 640 | 400 | 214

Compound | IC50 [1] [nM] | Selectivity ratio (Homo sapiens [2]) | IC50 [3] [nM] | Selectivity ratio (Homo sapiens [4])
C[C@@H](C1CC1)N1Cc2cc(-c3cnc4[nH]cc(-c5cnn(C)c5)c4c3)cc(NS(C)(=O)=O)c2C1=O | 4 | 615 | 150 | 449
Cc1cc(-c2cnc3[nH]ncc3n2)cc2c1C(=O)N([C@@H](C)C1CC1)C2 | 80 | – | – | –
Cc1cc(-c2cnc3[nH]cc(C(=O)NC4CCOCC4)c3c2)cc2c1C(=O)N([C@@H](C)C1CC1)C2 | 4.5 | 1030 | 320 | > 2240
Cc1cc(-c2cnc3[nH]cc(-c4cccnc4)c3c2)cc2c1C(=O)N(C(C)C1CC1)C2 (racemic) | 7 | 112 | 400 | 89
Cc1cc(-c2cnc3[nH]cc(-c4ccccn4)c3c2)cc2c1C(=O)N([C@@H](C)C1CC1)C2 | 33 | > 308 | 3500 | > 308
Cc1cc(-c2cnc3[nH]cc(-c4ccc(C(=O)O)c(N5CCCC5)c4)c3c2)cc2c1C(=O)N([C@@H](C)C1CC1)C2 | 4 | 49 | 170 | 853
Cc1ccc(-c2c[nH]c3ncc(-c4cc(C)c5c(c4)CN([C@@H](C)C4CC4)C5=O)cc23)cc1C(=O)O | 5 | > 1900 | 260 | > 1560
C[C@@H](C1CC1)N1Cc2cc(-c3cnc4[nH]cc(-c5cnn(C)c5)c4c3)cc(S(=O)(=O)N(C)C)c2C1=O | 2.6 | 159 | 100 | 254
Cc1cc(-c2cnc3[nH]cc(C(=O)O)c3c2)cc2c1C(=O)N([C@@H](C)C1CC1)C2 | 13 | > 775 | 11000 | > 775
C[C@@H](C1CC1)N1Cc2cc(-c3cnc4[nH]cc(-c5cnn(C)c5)c4c3)cc(C#N)c2C1=O | 3.7 | 244 | 170 | 1060
Cc1cc(-c2cnc3[nH]nnc3c2)cc2c1C(=O)N(C(C)C1CC1)C2 (racemic) | 1600 | – | – | –
Cc1cc(-c2cnc3[nH]cc(-c4cccc(C(=O)O)c4)c3c2)cc2c1C(=O)N([C@@H](C)C1CC1)C2 | 2.7 | 772 | 110 | 321
Cc1cc(-c2cnc3[nH]cc(-c4ccc(C(=O)O)c(C(C)C)c4)c3c2)cc2c1C(=O)N([C@@H](C)C1CC1)C2 | 2.1 | 344 | 59 | 224
CNC(=O)c1cc(-c2cnc3[nH]cc(-c4cnn(C)c4)c3c2)cc2c1C(=O)N([C@@H](C)C1CC1)C2 | 7.9 | > 1180 | 730 | 1050
Cc1cc(-c2cnc3[nH]cc(-c4ccccc4C(=O)O)c3c2)cc2c1C(=O)N([C@@H](C)C1CC1)C2 | 180 | > 59 | 15000 | > 59
Cc1cc(-c2cnc3[nH]cc(-c4ccncc4)c3c2)cc2c1C(=O)N(C1CCOCC1)C2 | 50 | 18 | 1000 | 7
Cc1cc(-c2cnc3[nH]cc(C4CCNC4)c3c2)cc2c1C(=O)N([C@@H](C)C1CC1)C2 (stereo not given in full) | 281 | > 36 | 3800 | > 36
CC(=O)Nc1cc(-c2cnc3[nH]cc(-c4cnn(C)c4)c3c2)cc2c1C(=O)N([C@@H](C)C1CC1)C2 | 2.5 | > 2740 | 500 | > 1060
Cc1cc(-c2cnc3[nH]cc(-c4ccncc4)c3c2)cc2c1C(=O)N(C(C)(C)C1CC1)C2 | 28 | 100 | 1100 | 74
Cc1cc(-c2cnc3[nH]cc(-c4ccc(C(=O)O)c(F)c4)c3c2)cc2c1C(=O)N([C@@H](C)C1CC1)C2 | 3.1 | 1050 | 700 | 546
COc1cc(-c2c[nH]c3ncc(-c4cc(C)c5c(c4)CN([C@@H](C)C4CC4)C5=O)cc23)ccc1C(=O)O | 1.5 | 494 | 170 | 369
Cc1cc(-c2cnc3[nH]cc(-c4ccncc4)c3c2)cc2c1C(=O)N([C@@H](C)c1ccc(F)cc1)C2 | 40 | > 190 | 2100 | 142
Cc1cc(-c2cnc3[nH]cc(-c4ccnc(C(F)(F)F)c4)c3c2)cc2c1C(=O)N([C@@H](C)C1CC1)C2 | 16 | > 552 | 4000 | > 578
C[C@@H](C1CC1)N1Cc2cc(-c3cnc4[nH]cc(-c5cnn(C)c5)c4c3)cc(S(C)(=O)=O)c2C1=O | 1.5 | 289 | 50 | 1020
Cc1cc(-c2cnc3[nH]cc(C(=O)Nc4ccncc4)c3c2)cc2c1C(=O)N([C@@H](C)C1CC1)C2 | 12 | > 856 | 1300 | > 856
